Results on 3 molecules are retold here after ChEMBL document CHEMBL4814050, “Identification of gallic acid as a active ingredient of Syzygium aromaticum against tacrolimus-induced damage in renal epithelial LLC-PK1 cells and rat kidney” (Bioorg Med Chem Lett, 2021).

Active and inactive are the calls of the source. No cut-off for these calls is given here.

Assay [1] is described as follows: Antioxidant activity assessed as reduction in FK506-induced ROS production by […] assay. The following applies: dose 0.1-100 µM. The assay is classed as functional.
Assay [2] deals with LLC-PK1. In words: Cytoprotective activity against pig LLC-PK1 cells assessed as reduction in FK506-induced cytotoxicity incubated for 2 hrs followed by FK506 stimulation and measured after 24 hrs by MTT assay. The assay is classed as functional, cell-based. Conditions: Sus scrofa, dose 12.5-100 µM, time 26.0 hrs.
The species named for assay [3] is Rattus norvegicus. As to the kind of experiment: Nephroprotective activity in Sprague-Dawley rat assessed as reduction in FK506-induced kidney dysfunction by measuring decrease in serum creatinine level measured after 14 days. The assay is classed as functional, organism-based. Conditions: time 14.0 day.

For `O=C1O[C@H]([C@@H](O)CO)C(O)=C1O`, the outcome in assay [1] was Active.
For `O=C(O[C@@H]1Cc2c(O)cc(O)cc2O[C@@H]1c1cc(O)c(O)c(O)c1)c1cc(O)c(O)c(O)c1`, the Activity result in assay [1] and in assay [2] was “Dose-Dependent Effect” throughout.
Consider `O=C(O)c1cc(O)c(O)c(O)c1`, for which the result in assay [3] was Active. For the same molecule, the Activity entry in assay [1] and in assay [2] was “Dose-Dependent Effect” each time.
